Assay results published in patent publication US20250101041A1, “POSITIVE ALLOSTERIC MODULATORS OF THE MUSCARINIC ACETYLCHOLINE RECEPTOR M4” (Vanderbilt University, priority 2022, published 2025).

Molecular target: T1, human mAChR M4 (Homo sapiens, UniProt P08173)
T1 construct: expressed in transfected cells; host or cells: CHO-K1 (American Type Culture Collection), stably expressing hM4 and Gqi5
T1 sequence (P08173 1-479): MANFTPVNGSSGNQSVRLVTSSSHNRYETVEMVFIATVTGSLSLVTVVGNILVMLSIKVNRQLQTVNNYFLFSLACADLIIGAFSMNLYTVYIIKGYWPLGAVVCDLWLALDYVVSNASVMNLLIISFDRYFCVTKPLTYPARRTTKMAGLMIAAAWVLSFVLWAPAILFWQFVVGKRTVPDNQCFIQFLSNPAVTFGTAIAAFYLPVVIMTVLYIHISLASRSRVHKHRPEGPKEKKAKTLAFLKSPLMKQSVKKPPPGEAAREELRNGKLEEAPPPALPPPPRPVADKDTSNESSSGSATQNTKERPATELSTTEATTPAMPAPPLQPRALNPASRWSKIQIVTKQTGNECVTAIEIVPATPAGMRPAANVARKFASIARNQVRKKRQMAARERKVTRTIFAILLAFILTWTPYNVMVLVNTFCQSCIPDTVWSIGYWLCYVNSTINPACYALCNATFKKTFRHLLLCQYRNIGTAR
Assay: mAChR M4 cell-based functional assay: calcium mobilization (Fluo-4, FDSS), potentiation of EC20 acetylcholine response in hM4-Gqi5 CHO-K1 cells
Design: Emax: dose or concentration left out as unconfirmed
Conditions: for Emax at 30 µM: CHO-K1, % ACh maximum at 30 μM; for Emax at 30 µM / EC50: human M4; for EC50: potentiation of EC20 acetylcholine response, calcium mobilization
Description: Human and rat M4 cDNAs, along with the chimeric G protein Gqi5, were transfected into Chinese hamster ovary (CHO-K1) cells purchased from the American Type Culture Collection using Lipofectamine2000. hM4-Gqi5 cells were grown in Ham's F-12 medium containing 10% heat-inactivated fetal bovine serum (FBS), 20 mM HEPES, 50 μg/mL G418 sulfate, and 500 μg/mL Hygromycin B. rM4-Gqi5 cells were grown in DMEM containing 10% heat-inactivated FBS, 20 mM HEPES, 400 μg/mL G418 sulfate, and 500 μg/mL Hygromycin B.
For high throughput measurement of agonist-evoked increases in intracellular calcium, CHO-K1 cells stably expressing muscarinic receptors were plated in growth medium lacking G418 and hygromycin at 15,000 cells/20 μL/well in Greiner 384-well black-walled, tissue culture (TC)-treated, clear-bottom plates (VWR). Cells were incubated overnight at 37° C. and 5% CO2. The next day, cells were washed using an ELX 405 (BioTek) with assay buffer; the final volume was then aspirated to 20 μL. Next, 20 μL of a […] of Fluo-4/acetoxymethyl ester (Invitrogen, Carlsbad, CA), prepared as a 2.3 mM stock in DMSO and mixed in a 1:1 ratio with 10% (w/v) Pluronic F-127 and diluted in assay buffer, was added to the wells and the cell plates were incubated for 50 min at 37° C. and 5% CO2. Dye was removed by washing with the ELX 405 and the final volume was aspirated to 20 μL. Compound master plates were formatted in an 11 point concentration-response curve (CRC) format (1:3 dilutions) in 100% DMSO with a starting concentration of 10 mM using a BRAVO liquid handler (Agilent). Test compound CRCs were then transferred to daughter plates (240 nL) using the Echo acoustic plate reformatter (Labcyte, Sunnyvale, CA) and then diluted into assay buffer (40 μL) to a 2× stock using a Thermo Fisher Combi (Thermo Fisher Scientific, Waltham, MA).
Calcium flux was measured using the Functional Drug Screening System (FDSS) 6000 or 7000 (Hamamatsu Corporation, Tokyo, Japan) as an increase in the fluorescent static ratio. Compounds were applied to cells (20 μL, 2X) using the automated system of the FDSS at 2-4 seconds into the protocol and the data were collected at 1 Hz. At 144 seconds, 10 μL of an EC20 concentration of the muscarinic receptor agonist acetylcholine was added (5×), followed by the addition of 12 μL of an […] concentration of acetylcholine at the 230 second time point (5×). Agonist activity was analyzed as a concentration-dependent increase in calcium mobilization upon compound addition. Positive allosteric modulator activity was analyzed as a concentration-dependent increase in the EC20 acetylcholine response. Antagonist activity was analyzed as a concentration-dependent decrease in the EC20 acetylcholine response. Concentration-response curves were generated using a four-parameter logistical equation in XLFit curve fitting software (IDBS, Bridgewater, NJ) for Excel (Microsoft, Redmond, WA) or Prism (GraphPad Software, Inc., San Diego, CA).
Compounds were synthesized as described above. Activity (EC50 and Emax) was determined in the mAChR M4 cell-based functional assay as described above and the data are shown in Table 4. The compound number corresponds to the compound numbers used in Tables 1-3.

With `Cc1nc2c(C)c(C)c(N3CCc4ncc(C(F)(F)F)cc4C3)nn2c(=O)c1F` [Compound 1-18, 3-fluoro-2,8,9-trimethyl-7-(3-(trifluoromethyl)-7,8-dihydro-1,6-naphthyridin-6(5H)-yl)-4H-pyrimido[1,2-b]pyridazin-4-one] as the molecule, how does the Emax at 30 µM read?
The Emax at 30 µM was 106%.

What about the EC50 of the same molecule?
Its EC50 is 94 nM.

Which Emax at 30 µM does the source give for `Cc1cc2ncc(N3CCOCC3)c(=O)n2nc1N1CCc2ncc(C(F)(F)F)cc2C1` [Compound 1-19, 8-Methyl-3-morpholino-7-(3-(trifluoromethyl)-7,8-dihydro-1,6-naphthyridin-6(5H)-yl)-4H-pyrimido[1,2-b]pyridazin-4-one] here?
Its Emax at 30 µM is 70%.

What about the EC50 of the same molecule?
The EC50 was 113 nM.

Which results are given for `Cc1cc2ncc(C3=CCCC3)c(=O)n2nc1N1CCc2ncc(C(F)(F)F)cc2C1` [Compound 1-20, 3-(Cyclopent-1-en-1-yl)-8-methyl-7-(3-(trifluoromethyl)-7,8-dihydro-1,6-naphthyridin-6(5H)-yl)-4H-pyrimido[1,2-b]pyridazin-4-one]?
Emax at 30 µM: 70%; EC50: 586 nM

`Cc1cc2ncc(-c3ccccc3)c(=O)n2nc1N1CCc2ncc(C(F)(F)F)cc2C1` [Compound 1-21, 8-methyl-3-phenyl-7-(3-(trifluoromethyl)-7,8-dihydro-1,6-naphthyridin-6(5H)-yl)-4H-pyrimido[1,2-b]pyridazin-4-one] was tested. Which Emax at 30 µM did it give?
Its Emax at 30 µM is 75%.

What about the EC50 of the same molecule?
Its EC50 is 136 nM.

`C=Cc1cnc2cc(C)c(N3CCc4ncc(C(F)(F)F)cc4C3)nn2c1=O` [Compound 1-22, 8-Methyl-7-(3-(trifluoromethyl)-7,8-dihydro-1,6-naphthyridin-6(5H)-yl)-3-vinyl-4H-pyrimido[1,2-b]pyridazin-4-one] was tested. Which Emax (CHO-K1) did it give?
The Emax was 73%.

And the EC50?
Its EC50 is 246 nM.

With `Cc1cc2ncc(C3CCCC3)c(=O)n2nc1N1CCc2ncc(C(F)(F)F)cc2C1` [Compound 1-23, 3-Cyclopentyl-8-methyl-7-(3-(trifluoromethyl)-7,8-dihydro-1,6-naphthyridin-6(5H)-yl)-4H-pyrimido[1,2-b]pyridazin-4-one] as the molecule, how does the Emax at 30 µM read?
The Emax at 30 µM was 75%.

What about the EC50 of the same molecule?
The EC50 was 363 nM.

How did the Emax at 30 µM turn out when `CCc1cnc2cc(C)c(N3CCc4ncc(C(F)(F)F)cc4C3)nn2c1=O` [Compound 1-24, 3-Ethyl-8-methyl-7-(3-(trifluoromethyl)-7,8-dihydro-1,6-naphthyridin-6(5H)-yl)-4H-pyrimido[1,2-b]pyridazin-4-one] was run?
Its Emax at 30 µM is 75%.

What about the EC50 of the same molecule?
Its EC50 is 309 nM.

With `Cc1cc2nc(C)c(C)c(=O)n2nc1N1CCc2ncc(C(F)(F)F)cc2C1` [Compound 1-25, 2,3,8-trimethyl-7-(3-(trifluoromethyl)-7,8-dihydro-1,6-naphthyridin-6(5H)-yl)-4H-pyrimido[1,2-b]pyridazin-4-one] as the molecule, how does the Emax at 30 µM read?
Its Emax at 30 µM is 81%.

What about the EC50 of the same molecule?
Its EC50 is 254 nM.

With `Cc1cc2nc(C(F)F)cc(=O)n2nc1N1CCc2ncc(C(F)(F)F)cc2C1` [Compound 1-26, 2-(difluoromethyl)-8-methyl-7-(3-(trifluoromethyl)-7,8-dihydro-1,6-naphthyridin-6(5H)-yl)-4H-pyrimido[1,2-b]pyridazin-4-one] as the molecule, how does the Emax at 30 µM read?
The Emax at 30 µM was 74%.

What about the EC50 of the same molecule?
The EC50 was 141 nM.

Which results are given for `Cc1cc2nc(C3CC3)cc(=O)n2nc1N1CCc2ncc(C(F)(F)F)cc2C1` [Compound 1-27, 2-cyclopropyl-8-methyl-7-(3-(trifluoromethyl)-7,8-dihydro-1,6-naphthyridin-6(5H)-yl)-4H-pyrimido[1,2-b]pyridazin-4-one]?
Emax at 30 µM: 76%; EC50: 38 nM

What does the source list for `Cc1cc2nc(C)c(Cl)c(=O)n2nc1N1CCc2ncc(C(F)(F)F)cc2C1` [Compound 1-28, 3-chloro-2,8-dimethyl-7-(3-(trifluoromethyl)-7,8-dihydro-1,6-naphthyridin-6(5H)-yl)-4H-pyrimido[1,2-b]pyridazin-4-one]?
Emax at 30 µM: 86%; EC50: 40 nM

With `Cc1cc(=O)n2nc(N3CCc4ncc(-c5ccnn5C)cc4C3)c(C)cc2n1` [Compound 1-29, 2,8-dimethyl-7-(3-(1-methyl-1H-pyrazol-5-yl)-7,8-dihydro-1,6-naphthyridin-6(5H)-yl)-4H-pyrimido[1,2-b]pyridazin-4-one] as the molecule, how does the Emax at 30 µM read?
Its Emax at 30 µM is 85%.

What about the EC50 of the same molecule?
Its EC50 is 146 nM.

With `Cc1ccc(-c2cnc3c(c2)CN(c2nn4c(=O)cc(C)nc4cc2C)CC3)cn1` [Compound 1-30, 2,8-dimethyl-7-(3-(6-methylpyridin-3-yl)-7,8-dihydro-1,6-naphthyridin-6(5H)-yl)-4H-pyrimido[1,2-b]pyridazin-4-one] as the molecule, how does the Emax at 30 µM read?
The Emax at 30 µM was 69%.

And the EC50?
The EC50 was 127 nM.

With `Cc1cc(=O)n2nc(N3CCc4ncc(-c5cnc(C)s5)cc4C3)c(C)cc2n1` [Compound 1-31, 2,8-dimethyl-7-(3-(2-methylthiazol-5-yl)-7,8-dihydro-1,6-naphthyridin-6(5H)-yl)-4H-pyrimido[1,2-b]pyridazin-4-one] as the molecule, how does the Emax at 30 µM read?
Its Emax at 30 µM is 83%.

And the EC50?
Its EC50 is 104 nM.

With `Cc1cc(=O)n2nc(N3CCc4ncc(-c5cnn(C6CC6)c5)cc4C3)c(C)cc2n1` [Compound 1-32, 7-(3-(1-cyclopropyl-1H-pyrazol-4-yl)-7,8-dihydro-1,6-naphthyridin-6(5H)-yl)-2,8-dimethyl-4H-pyrimido[1,2-b]pyridazin-4-one] as the molecule, how does the Emax at 30 µM read?
Its Emax at 30 µM is 76%.

And the EC50?
Its EC50 is 405 nM.

For `Cc1cc(=O)n2nc(N3CCc4ncc(C(F)(F)F)cc4C3)c(C)c(C)c2n1` [Compound 1-33, 2,8,9-trimethyl-7-(3-(trifluoromethyl)-7,8-dihydro-1,6-naphthyridin-6(5H)-yl)-4H-pyrimido[1,2-b]pyridazin-4-one], which Emax at 30 µM is on record?
The Emax at 30 µM was 77%.

What about the EC50 of the same molecule?
The EC50 was 64 nM.

Which results are given for `Cc1cc2nc(C(F)F)cc(=O)n2nc1N1CCc2ncc(-c3cn(C)nc3C)cc2C1` [Compound 1-34, 2-(difluoromethyl)-7-(3-(1,3-dimethyl-1H-pyrazol-4-yl)-7,8-dihydro-1,6-naphthyridin-6(5H)-yl)-8-methyl-4H-pyrimido[1,2-b]pyridazin-4-one]?
Emax at 30 µM: 90%; EC50: 73 nM

Which results are given for `Cc1cc2nc(C(F)F)cc(=O)n2nc1N1CCc2ncc(-c3cnn(C)c3)cc2C1` [Compound 1-35, 2-(Difluoromethyl)-8-methyl-7-(3-(1-methyl-1H-pyrazol-4-yl)-7,8-dihydro-1,6-naphthyridin-6(5H)-yl)-4H-pyrimido[1,2-b]pyridazin-4-one]?
Emax at 30 µM: 92%; EC50: 80 nM

`Cc1cc2nc(C(F)F)cc(=O)n2nc1N1CCc2ncc(-c3ccnn3C)cc2C1` [Compound 1-36, 2-(difluoromethyl)-8-methyl-7-(3-(1-methyl-1H-pyrazol-5-yl)-7,8-dihydro-1,6-naphthyridin-6(5H)-yl)-4H-pyrimido[1,2-b]pyridazin-4-one] was tested. Which Emax at 30 µM did it give?
The Emax at 30 µM was 96%.

What about the EC50 of the same molecule?
Its EC50 is 76 nM.

Which results are given for `Cc1cc2nccc(=O)n2nc1N1CCc2ncc(-c3ccn(C)c(=O)c3)cc2C1` [Compound 1-37, 8-methyl-7-(3-(1-methyl-2-oxo-1,2-dihydropyridin-4-yl)-7,8-dihydro-1,6-naphthyridin-6(5H)-yl)-4H-pyrimido[1,2-b]pyridazin-4-one]?
Emax at 30 µM: 83%; EC50: 2530 nM

Which results are given for `COc1cc(-c2cnc3c(c2)CN(c2nn4c(=O)ccnc4cc2C)CC3)ccn1` [Compound 1-38, 7-(3-(2-methoxypyridin-4-yl)-7,8-dihydro-1,6-naphthyridin-6(5H)-yl)-8-methyl-4H-pyrimido[1,2-b]pyridazin-4-one]?
Emax at 30 µM: 84%; EC50: 338 nM
